Assays:
[1] = Thio T binding (amyloid fibril formation); assay type: physicochemical; design: key to Thio T Binding: b, binding; n, not binding; settings: 1 mg/ml in 5% D-mannitol, 0.01% sodium azide, room temperature without stirring, monitored daily over 21 d; fluorescence ex 450 nm / em 482 nm; three independent experiments
Procedure: The kinetics of fibril formation in vitro is generally a slow process over several days or weeks, and can be monitored by the increase of fluorescence intensity of the cross-β-sheet–sensitive dye, Thio T [15]. Thio T fluorescence is thereby insignificant during the initial incubation period of amyloid aggregation due to the nonexistence of Thio T–sensitive β-sheet aggregates. After the initial phase, a time-dependent increase of fluorescence intensity is observed until a maximum intensity is reached, at which time maximal fibril formation has occurred. […] For the Thio T binding studies, all GnRH analogs were incubated at room temperature at a concentration of 1 mg/ml in 5% D-mannitol, conditions identical to the formulation used in the animal experiments. In addition, 0.01% sodium azide was added. The Thio T fluorescence was monitored daily for all analogs over a period of 21 d (Figure 1).
(§1) GnRH analogs were dissolved in a glass tube in 1 ml of 5% D-mannitol and 0.01% sodium azide at a concentration of 1 mg/ml. The GnRH analogs were then incubated at room temperature without stirring. The fibril formation was monitored by EM, CR, and time-resolved by Thio T binding studies. Three independent experiments were performed for each sample.
A 10-μl aliquot of peptide sample was diluted into 500 μl of water with 5% D-mannitol containing 0.01% (w/v) sodium azide. The solution was mixed with 10 μl of 1 mM Thio T prepared in the same solution. Fluorescence was measured immediately after addition of Thio T. The experiment was measured on a spectrofluorimeter (Photon Technology International) with excitation at 450 nm and emission at 482 nm. The fluorescence intensity at 482 nm was plotted against incubation time (day). A rectangular 10-mm quartz microcuvette was used. Three independent experiments were performed for each sample.

Congo red (CR) binding = assay type: physicochemical; design: key to Congo Red: b, binding; n, not binding; settings: analogs incubated for 30 d; for Congo Red: 1 mg/ml in 5% D-mannitol, 0.01% sodium azide, room temperature, UV 300–700 nm and by eye, three independent experiments
Procedure: To confirm amyloid formation by GnRH analogs, CR binding was measured. CR, like Thio T, is a dye routinely used to detect β-sheet–rich assemblies. CR binding can be measured by the “red shift” change of its absorption maximum from 490 to 540 nm, by an increase of the dye's molar absorptivity, and in favorable cases by eye. All three types of measurements were performed with GnRH analogs incubated for 30 d. […] However, five short-acting GnRH analogs, i.e., S3, S4, S6, S10, and S11, bind CR, showing that some short-acting GnRH-analogs are able to form amyloids after prolonged incubation (see also below). In contrast to short-acting analogs, all long-acting analogs bind CR.
as §1
A 5-μl aliquot of peptide sample was mixed with 80 μl of PBS buffer containing 10% ethanol. Then 15 μl of a 100 μM CR solution (filtered through 0.2-μm filter) in PBS containing 10% ethanol was added. After mixing, UV was measured from 300–700 nm. For the measurement of the CR-only spectrum, 15 μl of CR solution with 85 μl of PBS containing 10% ethanol was prepared. As a control, a 5-μl aliquot of GnRH analog mixed with 95 μl of PBS containing 10% ethanol was measured. Three independent experiments were performed for each sample. In addition to the UV measurements, pictures of the cuvette containing the peptide sample and CR were taken to visually show the CR binding to the amyloids.

[2] = Electron microscopy of negative-stained samples; assay type: physicochemical; design: key to EM^8 / EM^30: fib, fibrils; nfib, no fibrils; settings: for EM^8: electron microscopy at day 8 of incubation; for EM^8 / EM^30: 1 mg/ml in 5% D-mannitol, room temperature, at least two independent experiments; for EM^30: electron microscopy at day 30 of incubation; for EM, formation of amyloid-like fibrils at day 30 (in words): 30 d of incubation
Procedure: To formally determine the formation of amyloid fibrils by GnRH analogs and to characterize other possible assemblies present in the sample, EM was done on all of the GnRH analogs. Since the EM analysis is for a qualitative interpretation only, amyloid fibrils and other small aggregates might be observed under the electron microscope even if only a minority of the sample forms fibrils. Samples were studied after 8 and 30 d of incubation. […] The fibrils show a wide variety of morphologies, comprising helical ultrastructures with varying degrees of lateral association. Furthermore, the fibrils are composed of one or more filaments, resulting in overall diameters ranging from approximately 6 to 12 nm. No oligomers are observed for the long-acting compounds at day 8 or at day 30 (Figures 2 and S2).
as §1
A 5-μl aliquot of peptide sample was diluted into 50 μl of water to a peptide concentration of approximately 50 μM, spotted on a glow-discharged, carbon-coated Formvar grid (Electron Microscopy Sciences), incubated for 5 min, washed with distilled water, and then stained with 1% (w/v) aqueous uranyl formate solution. Uranyl formate solutions were filtered through 0.2-μm sterile syringe filters (Corning) before use. EM analysis was performed using a JEOL JEM-100CXII electron microscope at 80 kV with nominal magnifications between 36,000 and 72,000. Images were recorded digitally by using the SIS Megaview III imaging system. At least two independent experiments were carried out for each sample.

[3] = Peptide release from amyloid (dialysis experiment); settings: for KD: dissociation constant of the aggregates = final monomer concentration, 200 μl of 30-d-old analog dialyzed against 4 ml 5% D-mannitol, fluorescence ex 280 nm
Procedure: Although amyloid fibrils are very stable, they must follow thermodynamic equilibrium conditions between fibril and monomer. […] A total of 200 μl of 30-d-old GnRH analog (in) was dialyzed 4 ml of 5% D-mannitol (out). A 3.5-kDa cutoff, which is twice the size of the peptides studied, was chosen to ensure that the released particles are most likely monomeric. The peptide release and the remaining aggregates were monitored by fluorescence over 35 d at room temperature.
A 200-μl aliquot of aged GnRH in solution conditions given above was transferred into a 0.6-ml Eppendorf tube with a hole in the cap. To study the effect of heparin on peptide release, a mixture of hormone analog and heparin (1:1 v/v) was incubated overnight in parallel with a half-diluted peptide fibril sample in 5% D-mannitol and 0.01% sodium azide. The hole in the cap of the Eppendorf tube was sealed with a 3.5-kDa molecular weight cutoff (MWCO) membrane. Next, the Eppendorf tube was inserted upside down into a 15-ml Falcon tube containing 4 ml of 5% D-mannitol in water and 0.01% sodium azide. Care was taken to make sure that the membrane was exposed to solutions both in and outside and that any bubbles at the membrane interface were removed. The tubes were then incubated at room temperature. To measure the remaining peptide concentration inside the 0.6-ml Eppendorf tube, a 5-μl aliquot was diluted into 500 μl water with 5% D-mannitol, 0.01% sodium azide, and the fluorescence was measured with excitation at 280 nm and emission in the range of 290–500 nm. The excitation slit width was 2 nm, and emission slit width was 11 nm. To determine the peptide concentration outside the membrane in the 15-ml tube, an aliquot of 250 μl of solution was taken from the releasing medium, diluted into 500 μl final volume by 5% D-mannitol, 0.01% sodium azide, and fluorescence was measured. Following spectra recording, the dialysis system was reassembled as described above. […] The normalized intensity maxima from inside and outside the membrane were plotted as a function of time and fit by an exponential function to extract the half-life of the fibrils and the K off, respectively. […] The extracted half-life, t 1/2, is the time taken, during which the fluorescence signal inside the 0.6-ml Eppendorf tube drops by 50%.

[4] = tested on: plasma luteinizing hormone (LH) levels; settings: cited from earlier work; for Action: duration of action class as listed in Table 1, castrated male rat assay, ref Tables S1 and S2
From the text: Table 1 Biochemical and Biophysical Properties of Aggregates By GnRH-Analogs | column: Action || Supplement pbio.0060017.st001.doc, table 1: Table S1: Short acting GnRH analogs with their duration of action | column: Duration of action^b || Supplement pbio.0060017.st002.doc, table 1: Table S2: Long acting GnRH analogs with their duration of action | column: Duration of action^b || (+ 2 further places)

[5] = tested on: mouse embryo fibroblast cells; assay: LDH release assay; assay type: cell-based; settings: 1 μM Aβ(1–40); triplicate
From the text: Since amyloid fibrils can be toxic to cells and are associated with several neurological diseases, it is a concern whether or not amyloid fibrils of GnRH analogs are able to generate a toxic response as well. To measure the potential toxicity of GnRH analogs, we used the lactate dehydrogenase (LDH) release assay for cell killing. The LDH release assay is a widely used assay to determine the cytotoxicity of chemicals or environmental toxic factors. LDH is a soluble cytosolic enzyme that is released into the culture medium following the loss of membrane integrity. For the LDH assay, we used mouse embryo fibroblast cells and aged peptide samples at 60 μM in 5% D-mannitol.
For the LDH assay, we used mouse embryo fibroblast cells and peptide fibrils at 60 μM final concentration in 5% D-mannitol. For the buffer control, we used 5% D-mannitol in water. We also used 1 μM Aβ(1–40) and a cell lysate to compare our data. The assay was done using a kit (Sigma) as described by the manufacturer. The assays were done in triplicate and the data presented as the standard error of the mean.

[6] = 3.5-kDa MWCO, room temperature, 35 d
[7] = half-life of fibrils: time in which fluorescence inside drops by 50%, dialysis of 30-d-old analog, 3.5-kDa MWCO, 5% D-mannitol, room temperature, 35 d, exponential fit, 2 d = intrinsic diffusion of monomer
[8] = dialysis, 3.5-kDa cutoff, room temperature, 35 d

Compound	Thio T Binding [1]	Congo Red (Congo red (CR) binding)	EM^8 [2]	EM^30 [2]	KD [3, 6]	t1/2 [3, 7]	Action [4]	CR binding (in words) (Congo red (CR) binding)	EM, formation of amyloid-like fibrils at day 8 (in words) ([2]; 8 d of incubation)	EM, formation of amyloid-like fibrils at day 30 (in words) [2]	stability of fibrils from release profile (in words) ([3]; dialysis of 30-d-old samples, 35 d)	K off [3, 8]	t1/2 [3, 8]	Koff ([3]; monomer release from aggregates, dialysis of 30-d-old analog, 3.5-kDa MWCO, 5% D-mannitol, room temperature, 35 d, exponential fit)	time to reach equilibrium of fluorescence inside and outside of the membrane ([3]; dialysis, 3.5-kDa cutoff, room temperature)	duration of action ([4]; ref [29],[30])	toxicity (LDH release) [5]
Ac-Agl(2-Napht)-DCpa-DPal-Ser-Aph(Ac)-DAph(Ac)-Leu-ILys-Pro-DAla-NH2 [L21]	b	b	fib	fib	2000 nM	840 h	intermediate										
des-Ac-[DAph(CONHOCH3)6]Peg-degarelix [S10]	b	b	fib	fib	1000 nM	≫35 day		bind CR	form amyloid-like fibrils	form amyloid-like fibrils	form very stable amyloids with very little peptide release	< 2 × 10^−7 S^−1	over 35 d	≪2 × 10^−7 s^−1			
Ac-D3-Pro-DFpa-DTrp-Ser-Tyr-DTrp-Leu-Arg-Pro-Gly-NH2 [S5, reference compound]	n	n	nfib	nfib		48 h				do not form any detectable amyloid-like fibrils							
Ac-DNal-DCpa-DPal-Ser-D,LAgl(Me,acetylamino)benzoyl-DAph(Ac)-Leu-ILys-Pro-DAla-NH2 [S9]	n	n	nfib	nfib		48 h	very short			do not form any detectable amyloid-like fibrils							
CC(C)C[C@H](NC(=O)CNC(=O)[C@H](Cc1ccc(O)cc1)NC(=O)[C@H](CO)NC(=O)[C@H](Cc1c[nH]c2ccccc12)NC(=O)[C@H](Cc1c[nH]cn1)NC(=O)[C@@H]1CCC(=O)N1)C(=O)N[C@@H](CCCNC(=N)N)C(=O)N1CCC[C@H]1C(=O)NCC(N)=O [S12, reference compound]	n	n	nfib	nfib		48 h				do not form any detectable amyloid-like fibrils		approximately 4 × 10^−6 S^−1	approximately 2 d		≤ 3 days	a few hours	
Aβ(1–40): amyloid peptide Aβ(1–40), used as positive control in the LDH release assay																	neither the peptide analog samples nor Aβ(1–40) generated toxicity
Ac-DNal-DCpa-DPal-Ser-Aph(Ac)-DAph(Ac)-Leu-Agl(Me,IβAla)-Pro-DAla-NH2 [L22]	b	b	fib	fib	7000 nM	672 h	medium										
Ac-Agl(Me,2-Napht)-DCpa-DPal-Ser-Aph(Ac)-DAph(Ac)-Leu-ILys-Pro-DAla-NH2 [S8]	n	n	nfib	nfib		48 h	very short			do not form any detectable amyloid-like fibrils							
